Tests used:
[1] = tested on: Antigen-Induced Hypertussive Activity to Citric Acid in Guinea Pigs; assay: Antigen-Induced Hypertussive Model; format: in vivo, guinea pig; conditions: sensitized guinea pigs exposed to inhaled ovalbumin
Protocol: The effects of the compound are then assessed on the hypertussive response that occurs 72 hours post aerosol exposure to antigen or LTD4 exposure. Treatment of the animals occurs with the drug prior and/or after antigen or LTD4 challenge, but not on the day of citric acid challenge. Inhalation of citric acid (CA; 0.4% for 1 minute) induced 11 to 15 coughs during the exposure and 12-minute monitoring period in conscious guinea pigs.

[2] = tested on: LTD4-induced hypertussive response in the Guinea Pig; assay: LTD4-Induced Hypertussive Model; format: in vivo; conditions: oral 30 mg/kg b.i.d.; LTD4 inhalation 10 ug/ml for 1 minute; 72 hours after exposure
Protocol: The effects of the compound are then assessed on the hypertussive response that occurs 72 hours post aerosol exposure to antigen or LTD4 exposure. Treatment of the animals occurs with the drug prior and/or after antigen or LTD4 challenge, but not on the day of citric acid challenge. Similarly, inhalation of LTD4 (10 ug/ml for 1 minute) increased cough incidence and airway esoinophiles 72 hours after exposure. Oral treatment with Compound I (30 mg/kg, b.i.d.), blocked the LTD4-induced esoinophilia, and normalized the cough response, as shown in FIG. 5 herein.

[3] = tested on: Citric Acid-Induced Cough in Guinea Pigs; assay: Citric Acid Induced Cough Model (direct antitussive activity); format: in vivo, guinea pig; conditions: conscious guinea pigs, inhaled citric acid (0.4% for 1 minute) cough challenge; FIG. 4
Protocol: The directed antitussive activity of the compound in question if first assessed, by a 10 to 30 minute pretreatment period by intraperitoneal injection or a 1 hour pretreatment period for oral administration. The animals (guinea pigs) are then subjected to an inhaled citric acid-induced cough challenge. Inhalation of citric acid (CA; 0.4% for 1 minute) induced 11 to 15 coughs during the exposure and 12-minute monitoring period in conscious guinea pigs.

In the case of `COc1nccc(-c2c(-c3ccc(F)cc3)ncn2[C@H]2CC[C@H](O)CC2)n1` [Compound I, trans-1-(4-Hydroxycyclohexyl)-4-(4-fluorophenyl)-5-[(2-methoxy)pyrimidin-4-yl]imidazole], the airway eosinophilia ([1]; bronchoalveolar lavage) is reported as “reduce airway eosinophilia”, the “hypertussive state (citric acid-induced cough incidence)” value ([1]; citric acid challenge 72 hours post antigen) is reported as “normalizes the hypertussive state” and the LTD4-induced eosinophilia [2] is reported as “blocked”. The cough response [2] was “normalized” and the direct antitussive effect [3] was “no direct antitussive effect”.
